Experimental data taken from US20100226983A1, “Compositions for treatment and prevention of acne, methods of making the compositions, and methods of use thereof” (NanoBio Corporation, priority 2009, published 2010).
Read-outs that look alike come from different tables or passages of the source.

What was measured:
[1] = tested on: P. acnes; experiment: MIC and MBC against 16 clinical isolates of P. acnes (broth microdilution, no sebum); type: cell-based, Propionibacterium acnes; settings: for MIC Range / MBC Range: NB-00X formulations as μg CPC/ml; for MIC50 / MIC90 / MBC: Cutibacterium acnes
Experimental: The nanoemulsions (“NB-00X”) comprised, in an aqueous medium, soybean oil, Tween 20® as a nonionic surfactant, ethanol, cetylpyridinium chloride (CPC) as a cationic surfactant, EDTA, and water, and optionally, a thickening agent for the gel formulation.
Each dilution contained varying concentrations of soybean oil, Tween 20®, ethanol, CPC, and EDTA. Combination products were also evaluated; stock emulsions containing NB-00X gel (3 mg CPC/ml)+2% salicyclic acid or NB-00X gel+0.5% benzoyl peroxide (BPO) were serially diluted two-fold and each concentration was tested against 16 P. acnes isolates. In general, the standard methodology was followed for MIC and MBC determination.
Weighing of drugs and potency calculations were done as prescribed by Clinical and Laboratory Standards Institute (1). Dimethyl sulfoxide (DMSO) was used to prepare stock solutions of the water-insoluble compound tetracycline at 100× concentrations. […] Stock solutions of chlorhexidine and NB-00X were prepared at a 4× concentration in DI water.
To prepare intermediate concentrations, 100× stock solutions were serially diluted 1:1 using DMSO or DI water. Final concentrations were made by 1:50 or 1:1 dilutions in Wilkin Chalgren media (1) to give 2× of the test concentrations, with final DMSO concentrations at 1%. 50 μl of these drug concentrations were transferred to 96-well plates using multi-channel pipettes.
P. acnes strains grown on sheep blood agar for 24-48 hrs at 35° C. were used as the sources of inocula for susceptibility studies as per Clinical and Laboratory Standards Institute. […] Within 15 minutes, each well (except the negative growth controls) of the microtiter tray containing the serial dilutions of test compounds received 50 μl of inoculum, resulting into a log2 dilution of both drug and bug in each well. Verification of the colony-forming units in the inoculum was performed by diluting the adjusted inoculum preparation to […] and plating 100 μl on blood agar plate.
Microtiter and blood agar plates were incubated at 35-37° C. for 48 h in a 7.0 L AnaeroPack Jar (Mitsubishi gas chemical; No. 50-70) fitted with an anaerobic gas generating system (Misubishi, No. 10-01) and a dry anaerobic indicator strip (BBL, Becton, Dickinson & Co. #271051). MICs were read visually using a 96-well plate reader fitted with a magnifying mirror (Biodesign of New York). Because of the opacity of benzoyl peroxide, 20 μl of Cell Titer Blue (alamar blue from Promega G8080) was added after 48 hrs; the plates were incubated for an additional hour prior to reading. Colony-forming units were counted after 72 h of incubation to ensure that the initial inocula were between 2-5×10^6 cfu/ml.
The minimal bactericidal concentrations (MBC) for P. acnes were determined by plating 10 μl from the well determined to be the MIC plus 4 wells above the MIC on blood-supplemented Mueller-Hinton agar plate. Inoculated petri plates were incubated for 72 h at 35° C. under anaerobic conditions.

[2] = tested on: P. acnes; experiment: MIC and MBC against 16 P. acnes isolates in the presence of 50% artificial sebum; type: cell-based, Propionibacterium acnes; settings: for impact of sebum on microbiological activity (MIC90/MBC90) / increase of MBC90/MBCs in the presence of sebum / increase of MIC90 in the presence of sebum: 50% sebum versus no sebum; for impact of sebum on microbiological activity (MIC90/MBC90): up to the concentrations tested; for MIC90: Cutibacterium acnes, 16 P. acnes isolates, 50% artificial sebum
Experimental: The nanoemulsions (“NB-002”) comprised, in an aqueous medium, soybean oil, Tween 20® as a nonionic surfactant, ethanol, cetylpyridinium chloride (CPC) as a cationic surfactant, EDTA, and water. Artificial sebum was prepared by adding the entire ingredients given in the Table 6 and heating at 60° C. in a water bath, with intermittent stirring until all solids melted resulting in to a clear yellow liquid ([…] et al., “Diffusion properties of model compounds in artificial sebum. Int. J. Pharm., 345:88-94 (2007)). To prepare intermediate concentrations, 100× stock solutions were serially diluted 1:1 using DMSO or DI water. Final concentrations were made by 1:50 dilutions in Wilkin Chalgren media to give 2× of the final test concentrations, with final DMSO concentrations at 1%. 50 μl of these drug concentrations were transferred to 96-well plates using multi-channel pipettes. Sebum was prewarmed to 50° C. and each well received 45 μl of sebum. After ten minutes at 35° C., five microliters of a P. acnes culture at 10^8 colony-forming units/ml was added to each well.

[3] = 16 P. acnes isolates, no sebum, read-out: MBC50
[4] = 16 P. acnes isolates, no sebum, read-out: MBC90
[5] = 16 P. acnes isolates, no sebum, listed as chlorhexidine

SMILES | MIC Range ([1]; 16 P. acnes isolates, no sebum) | MIC50 ([1]; 16 P. acnes isolates, no sebum) | MIC90 ([1]; 16 P. acnes isolates, no sebum) | impact of sebum on microbiological activity (MIC90/MBC90) [2] | MIC90 [2] | increase of MIC90 in the presence of sebum [2] | MIC Range [1, 5] | MBC90 ([1]; 16 P. acnes isolates, no sebum) | MBC [1, 3] | MBC [1, 4] | isolates resistant ([1]; share of the P. acnes isolates resistant to the drug) | MBC Range ([1]; 16 P. acnes isolates, no sebum) | increase of MBC90/MBCs in the presence of sebum [2] | MBC Range [1, 5]
CCC[C@@H]1C[C@@H](C(=O)N[C@@H]([C@H]2O[C@H](SC)[C@H](O)[C@@H](O)[C@H]2O)[C@H](C)Cl)N(C)C1 [Clindamycin, clindamycin] | – | 2 µg/mL | > 64 µg/mL | – | > 64 µg/mL | – | – | – | > 64 µg/mL | > 64 µg/mL | – | – | – | –
CC[C@H]1OC(=O)[C@H](C)[C@@H](O[C@H]2C[C@@](C)(OC)[C@@H](O)[C@H](C)O2)[C@H](C)[C@@H](O[C@@H]2O[C@H](C)C[C@H](N(C)C)[C@H]2O)[C@](C)(O)C[C@@H](C)C(=O)[C@H](C)[C@@H](O)[C@]1(C)O [Erythromycin, erythromycin] | – | 2 µg/mL | – | did not impact | – | – | – | – | > 64 µg/mL | – | – | – | – | –
CN(C)[C@@H]1C(O)=C(C(N)=O)C(=O)[C@@]2(O)C(O)=C3C(=O)c4c(O)cccc4[C@@](C)(O)[C@H]3C[C@@H]12 [Tetracycline, tetracycline] | – | 1 µg/mL | > 32 µg/mL | – | 32 µg/mL | – | – | – | > 16 µg/mL | > 32 µg/mL | 44% | – | – | –
[H]/N=C(\N/C(=N/[H])NCCCCCCNC(=N)NC(=N)Nc1ccc(Cl)cc1)Nc1ccc(Cl)cc1 [Chlorhexidine, chlorhexidine] | ≦10 μg/ml | ≤ 10 µg/mL | ≤ 10 µg/mL | – | 78 µg/mL | at least eight-fold | ≤ 10 µg/mL | – | ≤ 10 µg/mL | ≤ 10 µg/mL | – | ≦10 μg/ml | at least 125 fold | ≤ 10 µg/mL

Further lines, with some results ahead:

MIC Range ([1]; 16 P. acnes isolates, no sebum) | MIC50 ([1]; 16 P. acnes isolates, no sebum) | MIC90 ([1]; 16 P. acnes isolates, no sebum) | impact of sebum on microbiological activity (MIC90/MBC90) [2] | MIC90 [2] | increase of MIC90 in the presence of sebum [2] | MIC Range [1, 5] | SMILES | MBC90 ([1]; 16 P. acnes isolates, no sebum) | MBC [1, 3] | MBC [1, 4] | isolates resistant ([1]; share of the P. acnes isolates resistant to the drug) | MBC Range ([1]; 16 P. acnes isolates, no sebum) | increase of MBC90/MBCs in the presence of sebum [2] | MBC Range [1, 5]
500 to 1000 µg/mL | 1000 µg/mL | 1000 µg/mL | not significantly impacted | 1000 µg/mL | – | – | O=C(O)c1ccccc1O [Salicylic acid] | 2000 µg/mL | 2000 µg/mL | 2000 µg/mL | – | – | – | –
≦50-100 μg/ml | 50 µg/mL | 50 µg/mL | – | 400 µg/mL | eight-fold | – | O=C(OOC(=O)c1ccccc1)c1ccccc1 [Benzoyl peroxide, benzoyl peroxide] | – | 200 µg/mL | 200 µg/mL | – | 100 to 400 µg/mL | eight-fold | –
